This is an account of results in ChEMBL document CHEMBL5532663, “Discovery of Potent and Selective Phosphatidylinositol 3-Phosphate 5-Kinase (PIKfyve) Inhibitors as Methuosis Inducers” (J Med Chem, 2024).

Bounds are passed on as bounds.

One may read the Kd as the equilibrium constant for the complex coming apart. Usually IC50 stands for the concentration that gives 50% inhibition. Read a low IC50 as greater potency in that assay.

Assay [1] deals with T1, 1-phosphatidylinositol 3-phosphate 5-kinase (Homo sapiens, UniProt Q9Y2I7). The experiment in a line: Binding affinity to PIKfyve (unknown origin) assessed as dissociation constant by KINOMEscan profiling method.
Assay [2] deals with T1, 1-phosphatidylinositol 3-phosphate 5-kinase.
A further assay relates to MDA-MB-231. The experiment in a line: cells. Conditions: Homo sapiens, MDA-MB-231, 24 h.
In a further assay the test system is HeLa. Kind of assay: cells. The note with it: Homo sapiens, 24 h.

T1 sequence (Q9Y2I7 whole entry): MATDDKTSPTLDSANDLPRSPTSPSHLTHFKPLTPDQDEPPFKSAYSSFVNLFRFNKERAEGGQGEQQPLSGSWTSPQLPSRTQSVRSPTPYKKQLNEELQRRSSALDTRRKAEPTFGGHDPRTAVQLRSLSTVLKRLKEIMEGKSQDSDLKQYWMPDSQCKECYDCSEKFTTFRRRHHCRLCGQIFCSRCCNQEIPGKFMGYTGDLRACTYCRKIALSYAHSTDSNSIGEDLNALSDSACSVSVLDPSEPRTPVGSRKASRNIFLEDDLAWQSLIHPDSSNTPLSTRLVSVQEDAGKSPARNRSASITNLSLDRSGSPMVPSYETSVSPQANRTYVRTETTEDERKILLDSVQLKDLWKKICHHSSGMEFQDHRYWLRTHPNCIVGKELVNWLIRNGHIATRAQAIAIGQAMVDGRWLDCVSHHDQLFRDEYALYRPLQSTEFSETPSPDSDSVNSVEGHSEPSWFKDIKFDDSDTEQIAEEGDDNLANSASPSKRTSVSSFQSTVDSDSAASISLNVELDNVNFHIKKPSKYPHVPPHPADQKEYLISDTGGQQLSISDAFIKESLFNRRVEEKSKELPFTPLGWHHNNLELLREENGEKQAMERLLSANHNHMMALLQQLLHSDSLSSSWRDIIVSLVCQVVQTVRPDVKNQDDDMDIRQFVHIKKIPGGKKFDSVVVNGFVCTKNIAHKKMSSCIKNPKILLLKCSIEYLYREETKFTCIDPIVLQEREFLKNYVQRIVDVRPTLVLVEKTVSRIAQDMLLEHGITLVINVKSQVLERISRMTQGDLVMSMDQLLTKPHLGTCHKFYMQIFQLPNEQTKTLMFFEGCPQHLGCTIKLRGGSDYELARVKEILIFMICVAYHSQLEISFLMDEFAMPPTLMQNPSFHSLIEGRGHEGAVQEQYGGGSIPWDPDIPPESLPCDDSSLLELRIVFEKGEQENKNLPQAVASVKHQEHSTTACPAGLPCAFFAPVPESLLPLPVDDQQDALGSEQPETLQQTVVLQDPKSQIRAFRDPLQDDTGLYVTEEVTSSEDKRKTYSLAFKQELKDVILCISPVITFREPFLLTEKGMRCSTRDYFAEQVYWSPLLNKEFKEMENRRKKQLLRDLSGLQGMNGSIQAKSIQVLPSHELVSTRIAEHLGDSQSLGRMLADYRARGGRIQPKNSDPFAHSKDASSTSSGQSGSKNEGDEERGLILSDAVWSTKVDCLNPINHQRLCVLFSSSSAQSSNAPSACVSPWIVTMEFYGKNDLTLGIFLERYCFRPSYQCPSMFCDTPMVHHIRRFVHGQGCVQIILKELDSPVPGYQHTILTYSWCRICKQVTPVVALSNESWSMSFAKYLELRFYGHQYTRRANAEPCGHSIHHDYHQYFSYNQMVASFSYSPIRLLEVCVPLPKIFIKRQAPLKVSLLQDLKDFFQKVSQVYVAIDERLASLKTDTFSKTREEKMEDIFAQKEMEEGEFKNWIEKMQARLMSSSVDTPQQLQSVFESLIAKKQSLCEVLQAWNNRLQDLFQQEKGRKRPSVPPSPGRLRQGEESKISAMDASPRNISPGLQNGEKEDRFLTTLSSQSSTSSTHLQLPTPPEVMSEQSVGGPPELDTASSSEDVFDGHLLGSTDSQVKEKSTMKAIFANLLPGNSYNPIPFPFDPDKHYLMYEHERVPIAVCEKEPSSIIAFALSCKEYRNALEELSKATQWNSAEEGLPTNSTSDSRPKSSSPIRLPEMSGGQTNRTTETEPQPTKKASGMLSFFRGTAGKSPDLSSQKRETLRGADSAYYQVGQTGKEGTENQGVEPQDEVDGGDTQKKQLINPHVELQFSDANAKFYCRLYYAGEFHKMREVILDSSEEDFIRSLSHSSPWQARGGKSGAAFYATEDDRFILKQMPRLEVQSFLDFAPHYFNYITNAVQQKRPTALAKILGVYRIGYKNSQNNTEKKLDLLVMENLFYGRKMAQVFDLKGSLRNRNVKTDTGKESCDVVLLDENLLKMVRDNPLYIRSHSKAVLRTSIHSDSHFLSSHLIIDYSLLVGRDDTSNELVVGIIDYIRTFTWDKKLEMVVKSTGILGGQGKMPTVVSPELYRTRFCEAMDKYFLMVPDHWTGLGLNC
Description for HeLa: Antiproliferative activity against human HeLa cells assessed as inhibition of cell viability incubated for 24 hrs by CCK8 assay
Description for MDA-MB-231: Antiproliferative activity against human MDA-MB-231 cells assessed as inhibition of cell viability incubated for 24 hrs by CCK8 assay

As for `COc1ccc2[nH]c(C)c(/C=C/C(=O)c3ccncc3)c2c1`, the Kd in assay [1] came to 5.3 nM; in assay [2], 3.75 nM.

In turn, `Nc1ncnc2c1c(-c1cc3ccccc3o1)cn2[C@H]1CC[C@@H](N)CC1` returned a Kd in assay [2] of 1.65 nM. Also, the half-maximal inhibitory concentration (IC50) in the assay on MDA-MB-231 was determined as 350 nM; in the assay on HeLa, 430 nM.

For `Nc1ncnc2c1c(-c1coc3ccccc13)cn2[C@H]1CC[C@@H](N)CC1`, the half-inhibitory concentration (IC50) in the assay with MDA-MB-231 and in the assay with HeLa was > 5000 nM in each case.

With `Cc1cccc(/C=N/Nc2cc(N3CCOCC3)nc(OCCc3ccccn3)n2)c1` [APILIMOD], the IC50 amounted to 100 nM in the assay with MDA-MB-231 and 140 nM in the assay with HeLa.
